Test results: US8354410B2 (Bristol-Meyers Squibb Company, priority 2010, dated 2013)
pEC50, pIC50: −log10 of the molar value.

Key:
HCV NS5B = biological target: T1, HCV NS5B (Hepatitis C virus genotype 1b, UniProt Q9WMX2); assay: HCV NS5B RdRp enzyme assay; format: biochemical; conditions: HCV NS5B RdRp genotype 1b; standard or modified assay not specified
T1 construct: The protein was expressed with an 18 amino acid C-terminal truncation to enhance the solubility; made in house; host or cells: E. coli BL21(DE3)
T1 sequence (Q9WMX2 2420-2992): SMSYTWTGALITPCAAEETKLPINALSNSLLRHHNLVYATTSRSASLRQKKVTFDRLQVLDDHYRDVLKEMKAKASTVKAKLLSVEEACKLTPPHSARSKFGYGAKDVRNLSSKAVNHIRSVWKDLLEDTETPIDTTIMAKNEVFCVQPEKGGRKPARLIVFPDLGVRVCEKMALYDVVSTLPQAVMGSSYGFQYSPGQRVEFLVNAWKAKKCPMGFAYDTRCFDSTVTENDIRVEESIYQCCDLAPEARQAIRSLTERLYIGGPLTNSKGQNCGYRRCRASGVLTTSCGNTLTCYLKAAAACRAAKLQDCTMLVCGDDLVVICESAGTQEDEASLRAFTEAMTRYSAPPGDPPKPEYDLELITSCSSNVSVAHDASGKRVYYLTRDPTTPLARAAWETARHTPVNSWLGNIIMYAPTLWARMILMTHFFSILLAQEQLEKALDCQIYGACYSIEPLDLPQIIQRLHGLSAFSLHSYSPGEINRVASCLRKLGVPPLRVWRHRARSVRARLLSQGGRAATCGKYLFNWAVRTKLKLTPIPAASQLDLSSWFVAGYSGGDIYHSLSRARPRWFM
Procedure: HCV NS5B RdRp cloning, expression, and purification. The cDNA encoding the NS5B protein of HCV, genotype 1b, was cloned into the pET21a expression vector. The protein was expressed with an 18 amino acid C-terminal truncation to enhance the solubility. The E. coli competent cell line BL21(DE3) was used for expression of the protein. Cultures were grown at 37° C. for ˜4 hours until the cultures reached an optical density of 2.0 at 600 nm. The cultures were cooled to 20° C. and induced with 1 mM IPTG. Fresh ampicillin was added to a final concentration of 50 μg/ml and the cells were grown overnight at 20° C.
Cell pellets (3 L) were lysed for purification to yield 15-24 mgs of purified NS5B. The lysis buffer consisted of 20 mM Tris-HCl, pH 7.4, 500 mM NaCl, 0.5% triton X-100, 1 mM DTT, 1 mM EDTA, 20% glycerol, 0.5 mg/ml lysozyme, 10 mM MgCl2, 15 ug/ml deoxyribonuclease I, and Complete TM protease inhibitor tablets (Roche). After addition of the lysis buffer, frozen cell pellets were resuspended using a tissue homogenizer. To reduce the viscosity of the sample, aliquots of the lysate were sonicated on ice using a microtip attached to a Branson sonicator. The sonicated lysate was centrifuged at 100,000×g for 1 hr at 4° C. and filtered through a 0.2 μm filter unit (Corning).
The protein was purified using three sequential chromatography steps: Heparin sepharose CL-6B, polyU sepharose 4B, and Hitrap SP sepharose (Pharmacia). The chromatography buffers were identical to the lysis buffer but contained no lysozyme, deoxyribonuclease I, MgCl2 or protease inhibitor and the NaCl concentration of the buffer was adjusted according to the requirements for charging the protein onto the column. Each column was eluted with a NaCl gradient which varied in length from 5-50 column volumes depending on the column type. After the final chromatography step, the resulting purity of the enzyme is >90% based on SDS-PAGE analysis. The enzyme was aliquoted and stored at −80° C.
Standard HCV NS5B RdRp enzyme assay. HCV RdRp genotype 1b assays were run in a final volume of 60 μl in 96 well plates (Costar 3912). The assay buffer is composed of 20 mM Hepes, pH 7.5, 2.5 mM KCl, 2.5 mM MgCl2, 1 mM DTT, 1.6 U RNAse inhibitor (Promega N2515), 0.1 mg/ml BSA (Promega R3961), and 2% glycerol. All compounds were serially diluted (3-fold) in DMSO and diluted further in water such that the final concentration of DMSO in the assay was 2%. HCV RdRp genotype 1b enzyme was used at a final concentration of 28 nM. A polyA template was used at 6 nM, and a biotinylated oligo-dT12 primer was used at 180 nM final concentration. Template was obtained commercially (Amersham 27-4110). Biotinylated primer was prepared by Sigma Genosys. 3H-UTP was used at 0.6 μCi (0.29 μM total UTP). Reactions were initiated by the addition of enzyme, incubated at 30° C. for 60 min, and stopped by adding 25 μl of 50 mM EDTA containing SPA beads (4 μg/μl, Amersham RPNQ 0007). Plates were read on a Packard Top Count NXT after >1 hr incubation at room temperature.
Modified HCV NS5B RdRp enzyme assay. A modified enzyme assay was performed essentially as described for the standard enzyme assay except for the following: The biotinylated oligo dT12 primer was precaptured on streptavidin-coated SPA beads by mixing primer and beads in assay buffer and incubating at room temperature for one hour. Unbound primer was removed after centrifugation. The primer-bound beads were resuspended in 20 mM Hepes buffer, pH 7.5 and used in the assay at final concentrations of 20 nM primer and 0.67 μg/μl beads. Order of addition in the assay: enzyme (14 nM) was added to diluted compound followed by the addition of a mixture of template (0.2 nM), 3H-UTP (0.6 μCi, 0.29 μM), and primer-bound beads, to initiate the reaction; concentrations given are final. Reactions were allowed to proceed for 4 hours at 30° C.
IC50 values for compounds were determined using seven different [I]. […]

HCV replicon = HCV replicon assay (FRET / luciferase reporter); format: cell-based, HCV (HUH-7 cells); conditions: Hepatitis C virus; HCV replicon cells
Text: FRET Assay Preparation. To perform the HCV FRET screening assay, 96-well cell culture plates were used. The FRET peptide (Anaspec, Inc.) (Taliani et al., Anal. Biochem. 1996, 240, 60-67) contains a fluorescence donor, EDANS, near one end of the peptide and an acceptor, DABCYL, near the other end. The fluorescence of the peptide is quenched by […] resonance energy transfer (RET) between the donor and the acceptor, but as the NS3 protease cleaves the peptide the products are released from RET quenching and the fluorescence of the donor becomes apparent. The assay reagent was made as follows: 5× cell Luciferase cell culture lysis reagent from Promega (#E153A) diluted to 1× with dH2O, NaCl added to 150 mM final, the FRET peptide diluted to 20 μM final from a 2 mM stock.
To prepare plates, HCV replicon cells, with or without a Renilla luciferase reporter gene, were trypsinized and placed into each well of a 96-well plate with titrated test compounds added in columns 3 through 12; columns 1 and 2 contained a control compound (HCV protease inhibitor), and the bottom row contained cells without compound. The plates were then placed in a CO2 incubator at 37° C.
Assays. Subsequent to addition of the test compounds described above (FRET Assay Preparation), at various times the plate was removed and Alamar blue solution (Trek Diagnostics, #00-100) was added per well as a measure of cellular toxicity. After reading in a Cytoflour 4000 instrument (PE Biosystems), plates were rinsed with PBS and then used for FRET assay by the addition of 30 ul of the FRET peptide assay reagent described above (FRET Assay Preparation) per well. The plate was then placed into the Cytoflour 4000 instrument which had been set to 340 excite/490 emission, automatic mode for 20 cycles and the plate read in a kinetic mode. Typically, the signal to noise using an endpoint analysis after the reads was at least three-fold. Alternatively, after Alamar blue reading, plates were rinsed with PBS, 50 ul of DMEM (high glucose) without phenol red was added and plates were then used for luciferase assay using the Promega Dual-Glo Luciferase Assay System.
Compound analysis was determined by quantification of the relative HCV replicon inhibition and the relative cytotoxicity values. To calculate cytoxicity values, the average Alamar Blue fluorescence signals from the control wells were set as 100% non-toxic. The individual signals in each of the compound test wells were then divided by the average control signal and multiplied by 100% to determine […]. To calculate the HCV replicon inhibition values, an average background value was obtained from the two wells containing the highest amount of HCV protease inhibitor at the end of the assay period. These numbers were similar to those obtained from naïve Huh-7 cells.
The background numbers were then subtracted from the average signal obtained from the control wells and this number was used as 100% activity. The individual signals in each of the compound test wells were then divided by the averaged control values after background subtraction and multiplied by 100% to determine percent activity. EC50 values for a protease inhibitor titration were calculated as the concentration which caused a 50% reduction in FRET or luciferase activity. The two numbers generated for the compound plate, percent cytoxicity and percent activity were used to determine compounds of interest for further analysis.
The HCV replicon luciferase assay was developed to monitor the inhibitory effects of compounds described in the disclosure on HCV viral replication. Utilization of a replicon luciferase reporter assay was first described by Krieger et al (Krieger N, Lohmann V, and Bartenschlager R, J. Virol. 75(10):4614-4624 (2001)). HUH-7 cells, constitutively expressing the HCV replicon, were grown in Dulbecco's Modified Eagle Media (DMEM) (Gibco-BRL) containing 10% Fetal calf serum (FCS) (Sigma) and 1 mg/ml G418 (Gibco-BRL). […]

CNC(=O)c1c(-c2ccc(F)cc2)oc2ccc(-c3cc(C(=O)NC4(c5ccc6ccncc6n5)CC4)cc(F)c3C)c(F)c12
pIC50 (HCV NS5B): 8.00
pEC50 (HCV replicon): 8.05

CNC(=O)c1c(-c2ccc(F)cc2)oc2ccc(-c3cc(C(=O)NC4(c5ccc6ncccc6n5)CC4)ccc3C)cc12
pIC50 (HCV NS5B): 8.00
pEC50 (HCV replicon): 7.52

CNC(=O)c1c(-c2ccc(F)cc2)oc2ccc(-c3cc(C(=O)N[C@H](C)c4nc5cnccc5o4)cc(F)c3C)c(F)c12 [5-(5-(1-(1H-imidazo[4,5-o]pyridin-2-yl)cyclopropylcarbamoyl)-2-methylphenyl)-4-fluoro-2-(4-fluorophenyl)-N-methylbenzofuran-3-carboxamide]
pIC50 (HCV NS5B): 7.52
pEC50 (HCV replicon): 7.40

CNC(=O)c1c(-c2ccc(F)cc2)oc2ccc(-c3cc(C(=O)NC4(c5ccc6ccncc6n5)CC4)ccc3C)cc12
pIC50 (HCV NS5B): 8.30
pEC50 (HCV replicon): 8.52

CNC(=O)c1c(-c2ccc(F)cc2)oc2ccc(-c3cc(C(=O)NC4(c5nc6cnccc6o5)CC4)cc(F)c3C)c(F)c12 [4-fluoro-5-(3-fluoro-2-methyl-5-(1-(oxazolo[4,5-c]pyridin-2-yl)cyclopropylcarbamoyl)phenyl)-2-(4-fluorophenyl)-N-methylbenzofuran-3-carboxamide]
pIC50 (HCV NS5B): 7.70
pEC50 (HCV replicon): 8.22

CNC(=O)c1c(-c2ccc(F)cc2)oc2ccc(-c3cc(C(=O)NC4(c5ccc6cnccc6n5)CC4)cc(F)c3C)c(F)c12
pIC50 (HCV NS5B): 8.15
pEC50 (HCV replicon): 8.22

CNC(=O)c1c(-c2ccc(F)cc2)oc2ccc(-c3cc(C(=O)NC4(c5ccc6ccncc6n5)CC4)ccc3C)c(F)c12
pIC50 (HCV NS5B): 7.70
pEC50 (HCV replicon): 8.22

CNC(=O)c1c(-c2ccc(F)cc2)oc2ccc(-c3cc(C(=O)NC4(c5nc6cnccc6o5)CC4)c(OC)cc3C)c(F)c12
pIC50 (HCV NS5B): 7.40
pEC50 (HCV replicon): 9.00

CNC(=O)c1c(-c2ccc(F)cc2)oc2ccc(-c3cc(C(=O)NC4(c5ncc6cnccc6n5)CC4)ccc3C)c(F)c12
pIC50 (HCV NS5B): 8.22
pEC50 (HCV replicon): 7.70

CNC(=O)c1c(-c2ccc(F)cc2)oc2ccc(-c3cc(C(=O)NC4(c5nccc6[nH]ccc56)CC4)ccc3C)c(F)c12
pEC50 (HCV replicon): 7.22

CNC(=O)c1c(-c2ccc(F)cc2)oc2ccc(-c3cc(C(=O)NC4(c5ccc6cccnc6n5)CC4)cc(F)c3C)c(F)c12
pIC50 (HCV NS5B): 8.00
pEC50 (HCV replicon): 7.15

CNC(=O)c1c(-c2ccc(F)cc2)oc2ccc(-c3cc(C(=O)N[C@H](C)c4nc5cnccc5o4)c(OC)cc3C)c(F)c12
pIC50 (HCV NS5B): 7.40
pEC50 (HCV replicon): 8.00

CNC(=O)c1c(-c2ccc(F)cc2)oc2ccc(-c3cc(C(=O)NC4(c5ccc6cnccc6n5)CC4)c(OC)cc3C)c(F)c12 [5-(5-(1-(1,6-naphthyridin-2-yl)cyclopropylcarbamoyl)-4-methoxy-2-methylphenyl)-4-fluoro-2-(4-fluorophenyl)-N-methylbenzofuran-3-carboxamide]
pIC50 (HCV NS5B): 7.00
pEC50 (HCV replicon): 8.05

CNC(=O)c1c(-c2ccc(F)cc2)oc2ccc(-c3cc(C(=O)NC4(c5ccc6ccncc6n5)CC4)c(OC)cc3OCC(N)=O)cc12
pIC50 (HCV NS5B): 8.30
pEC50 (HCV replicon): 8.40

CNC(=O)c1c(-c2ccc(F)cc2)oc2ccc(-c3cc(C(=O)NC4(c5nc6cnccc6o5)CC4)ccc3C)cc12
pIC50 (HCV NS5B): 7.70
pEC50 (HCV replicon): 9.00

CNC(=O)c1c(-c2ccc(F)cc2)oc2ccc(-c3cc(C(=O)NC4(c5ccc6cnccc6n5)CC4)ccc3C)cc12
pIC50 (HCV NS5B): 8.10
pEC50 (HCV replicon): 8.70

CNC(=O)c1c(-c2ccc(F)cc2)oc2ccc(-c3cc(C(=O)NC4(c5nc6ccncc6o5)CC4)c(OC)cc3C)c(F)c12 [4-fluoro-2-(4-fluorophenyl)-5-(4-methoxy-2-methyl-5-(1-(oxazolo[5,4-c]pyridin-2-yl)cyclopropylcarbamoyl)phenyl)-N-methylbenzofuran-3-carboxamide]
pIC50 (HCV NS5B): 7.70
pEC50 (HCV replicon): 8.40

CNC(=O)c1c(-c2ccc(F)cc2)oc2ccc(-c3cc(C(=O)NC4(c5nc6cnccc6o5)CC4)c(OC)cc3C)cc12
pIC50 (HCV NS5B): 8.00
pEC50 (HCV replicon): 9.00

CNC(=O)c1c(-c2ccc(F)cc2)oc2ccc(-c3cc(C(=O)NC4(c5ccc6cccnc6n5)CC4)ccc3C)cc12
pIC50 (HCV NS5B): 8.52
pEC50 (HCV replicon): 7.40

CNC(=O)c1c(-c2ccc(F)cc2)oc2ccc(-c3cc(C(=O)NC4(c5ccc6[nH]ccc6n5)CC4)ccc3C)c(F)c12
pIC50 (HCV NS5B): 7.70
pEC50 (HCV replicon): 8.15

CNC(=O)c1c(-c2ccc(F)cc2)oc2ccc(-c3cc(C(=O)NC4(c5nc6cnccc6o5)CC4)cc(F)c3C)cc12 [5-(3-fluoro-2-methyl-5-(1-(oxazolo[4,5-c]pyridin-2-yl)cyclopropylcarbamoyl)phenyl)-2-(4-fluorophenyl)-N-methylbenzofuran-3-carboxamide]
pIC50 (HCV NS5B): 7.70
pEC50 (HCV replicon): 8.52

CNC(=O)c1c(-c2ccc(F)cc2)oc2ccc(-c3cc(C(=O)NC4(c5nc6cnccc6o5)CC4)ccc3C)c(F)c12
pIC50 (HCV NS5B): 7.70
pEC50 (HCV replicon): 8.40
